Assays:
[1] = molecular target: Serine/threonine-protein kinase SIK1 (Homo sapiens) (UniProt P57059); assay: Inhibition of SIK at 1 uM
[2] = molecular target: RAC-beta serine/threonine-protein kinase (Homo sapiens) (UniProt P31751); assay: Inhibition of PKBbeta at 0.1 uM; values are per cent of control
[3] = molecular target: T1, Ephrin type-B receptor 2 (Homo sapiens) (UniProt P29323); assay: Inhibition of EphB2 at 1 uM; values are per cent of control
T1 sequence (whole entry): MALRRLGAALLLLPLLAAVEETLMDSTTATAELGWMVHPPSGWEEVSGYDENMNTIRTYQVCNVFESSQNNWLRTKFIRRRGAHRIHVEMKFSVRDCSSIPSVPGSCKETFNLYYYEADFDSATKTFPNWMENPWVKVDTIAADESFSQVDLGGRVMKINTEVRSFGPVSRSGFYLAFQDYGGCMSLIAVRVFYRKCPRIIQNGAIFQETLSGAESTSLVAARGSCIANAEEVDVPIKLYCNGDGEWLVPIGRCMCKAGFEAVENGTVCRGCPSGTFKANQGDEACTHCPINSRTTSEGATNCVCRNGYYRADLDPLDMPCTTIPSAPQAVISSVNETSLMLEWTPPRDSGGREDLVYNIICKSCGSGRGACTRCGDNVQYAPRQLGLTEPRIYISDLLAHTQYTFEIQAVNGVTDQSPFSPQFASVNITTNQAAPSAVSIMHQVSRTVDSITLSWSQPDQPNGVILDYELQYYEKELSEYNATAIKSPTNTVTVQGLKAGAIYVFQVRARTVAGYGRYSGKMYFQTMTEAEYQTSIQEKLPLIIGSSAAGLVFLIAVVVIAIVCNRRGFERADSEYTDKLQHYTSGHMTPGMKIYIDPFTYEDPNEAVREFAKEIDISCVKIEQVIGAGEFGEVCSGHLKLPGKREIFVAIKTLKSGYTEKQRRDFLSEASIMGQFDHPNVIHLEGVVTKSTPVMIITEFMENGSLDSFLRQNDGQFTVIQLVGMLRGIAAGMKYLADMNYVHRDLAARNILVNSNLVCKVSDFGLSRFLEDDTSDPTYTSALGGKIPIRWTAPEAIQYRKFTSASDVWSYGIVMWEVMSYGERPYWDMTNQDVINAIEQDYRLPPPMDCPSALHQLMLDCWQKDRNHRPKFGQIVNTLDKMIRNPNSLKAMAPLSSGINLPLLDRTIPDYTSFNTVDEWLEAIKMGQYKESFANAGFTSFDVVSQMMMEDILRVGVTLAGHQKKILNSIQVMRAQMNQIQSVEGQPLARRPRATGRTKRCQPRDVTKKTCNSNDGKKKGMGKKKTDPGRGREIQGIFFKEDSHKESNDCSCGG

[4] = molecular target: RAF proto-oncogene serine/threonine-protein kinase (Homo sapiens) (UniProt P04049); assay: Inhibition of c-RAF at 0.1 uM; values are per cent of control
[5] = molecular target: Tyrosine-protein kinase HCK (Homo sapiens) (UniProt P08631); assay: Inhibition of Hck at 0.1 uM; values are per cent of control
[6] = molecular target: Tyrosine-protein kinase ABL1 (Homo sapiens) (UniProt P00519); assay: Inhibition of Abl at 1 uM; values are per cent of control
[7] = molecular target: Ephrin type-A receptor 2 (Homo sapiens) (UniProt P29317); assay: Inhibition of EphA2 at 1 uM; values are per cent of control
[8] = molecular target: T2, Inhibitor of nuclear factor kappa-B kinase subunit beta (Homo sapiens) (UniProt O14920); assay: Inhibition of IKK-beta at 1 uM; values are per cent of control
T2 sequence (whole entry): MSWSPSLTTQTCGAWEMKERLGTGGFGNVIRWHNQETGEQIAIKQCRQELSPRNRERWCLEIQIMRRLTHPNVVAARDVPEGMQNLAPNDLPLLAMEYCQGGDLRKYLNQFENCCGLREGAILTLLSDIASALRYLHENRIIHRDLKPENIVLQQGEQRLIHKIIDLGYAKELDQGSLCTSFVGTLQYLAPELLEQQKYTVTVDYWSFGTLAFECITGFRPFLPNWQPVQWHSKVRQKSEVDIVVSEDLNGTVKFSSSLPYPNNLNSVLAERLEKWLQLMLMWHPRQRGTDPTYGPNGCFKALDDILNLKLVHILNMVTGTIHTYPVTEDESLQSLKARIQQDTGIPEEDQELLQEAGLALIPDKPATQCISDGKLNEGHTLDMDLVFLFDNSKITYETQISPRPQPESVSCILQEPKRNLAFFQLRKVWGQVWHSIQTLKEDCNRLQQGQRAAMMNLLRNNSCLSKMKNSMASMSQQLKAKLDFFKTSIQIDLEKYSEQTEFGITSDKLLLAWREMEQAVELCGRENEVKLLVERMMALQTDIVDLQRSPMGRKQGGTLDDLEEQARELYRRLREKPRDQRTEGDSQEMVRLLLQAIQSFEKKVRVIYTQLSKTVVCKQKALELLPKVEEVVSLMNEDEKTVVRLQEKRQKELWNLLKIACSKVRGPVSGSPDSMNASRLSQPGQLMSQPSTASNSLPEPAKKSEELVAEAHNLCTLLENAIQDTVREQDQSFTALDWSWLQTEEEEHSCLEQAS

Chain of Serine/threonine-protein kinase SIK1 (Homo sapiens) (P57059 whole entry): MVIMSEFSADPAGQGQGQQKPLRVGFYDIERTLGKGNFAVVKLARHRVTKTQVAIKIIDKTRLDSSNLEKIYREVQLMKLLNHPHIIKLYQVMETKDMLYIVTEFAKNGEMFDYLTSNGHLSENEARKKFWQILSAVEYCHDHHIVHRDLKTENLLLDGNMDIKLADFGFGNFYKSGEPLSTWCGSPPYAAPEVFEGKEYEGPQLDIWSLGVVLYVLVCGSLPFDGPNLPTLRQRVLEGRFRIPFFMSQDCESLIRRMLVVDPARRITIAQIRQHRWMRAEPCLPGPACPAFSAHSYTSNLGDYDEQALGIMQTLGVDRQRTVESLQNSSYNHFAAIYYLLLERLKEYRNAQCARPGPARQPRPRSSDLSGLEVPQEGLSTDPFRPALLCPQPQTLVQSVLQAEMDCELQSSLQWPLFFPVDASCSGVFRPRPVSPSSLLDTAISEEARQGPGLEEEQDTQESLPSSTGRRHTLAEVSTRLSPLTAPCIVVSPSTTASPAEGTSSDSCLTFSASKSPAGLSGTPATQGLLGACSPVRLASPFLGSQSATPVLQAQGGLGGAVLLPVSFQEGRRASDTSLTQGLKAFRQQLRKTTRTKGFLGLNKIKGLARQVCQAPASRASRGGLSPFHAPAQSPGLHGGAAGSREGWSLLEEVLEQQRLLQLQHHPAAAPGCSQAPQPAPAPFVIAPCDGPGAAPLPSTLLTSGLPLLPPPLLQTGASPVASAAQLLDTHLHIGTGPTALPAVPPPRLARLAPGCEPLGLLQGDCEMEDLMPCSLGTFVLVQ
Chain of Tyrosine-protein kinase HCK (Homo sapiens) (P08631 2-526 limits assumed): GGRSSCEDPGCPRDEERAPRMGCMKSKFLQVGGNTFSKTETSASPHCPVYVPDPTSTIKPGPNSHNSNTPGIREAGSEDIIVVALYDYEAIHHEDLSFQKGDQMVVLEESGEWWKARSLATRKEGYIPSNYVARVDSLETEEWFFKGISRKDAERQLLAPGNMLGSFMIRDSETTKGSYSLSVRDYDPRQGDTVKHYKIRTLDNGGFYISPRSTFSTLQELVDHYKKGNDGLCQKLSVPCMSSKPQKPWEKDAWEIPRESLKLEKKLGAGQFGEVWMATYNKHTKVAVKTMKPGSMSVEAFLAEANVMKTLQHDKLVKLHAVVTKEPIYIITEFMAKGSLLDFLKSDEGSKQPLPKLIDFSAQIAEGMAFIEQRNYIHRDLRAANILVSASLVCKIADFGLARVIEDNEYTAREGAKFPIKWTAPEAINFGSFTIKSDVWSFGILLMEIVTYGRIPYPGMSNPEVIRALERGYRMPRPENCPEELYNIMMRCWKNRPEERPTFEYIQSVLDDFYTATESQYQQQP
Chain of RAF proto-oncogene serine/threonine-protein kinase (Homo sapiens) (P04049 whole entry): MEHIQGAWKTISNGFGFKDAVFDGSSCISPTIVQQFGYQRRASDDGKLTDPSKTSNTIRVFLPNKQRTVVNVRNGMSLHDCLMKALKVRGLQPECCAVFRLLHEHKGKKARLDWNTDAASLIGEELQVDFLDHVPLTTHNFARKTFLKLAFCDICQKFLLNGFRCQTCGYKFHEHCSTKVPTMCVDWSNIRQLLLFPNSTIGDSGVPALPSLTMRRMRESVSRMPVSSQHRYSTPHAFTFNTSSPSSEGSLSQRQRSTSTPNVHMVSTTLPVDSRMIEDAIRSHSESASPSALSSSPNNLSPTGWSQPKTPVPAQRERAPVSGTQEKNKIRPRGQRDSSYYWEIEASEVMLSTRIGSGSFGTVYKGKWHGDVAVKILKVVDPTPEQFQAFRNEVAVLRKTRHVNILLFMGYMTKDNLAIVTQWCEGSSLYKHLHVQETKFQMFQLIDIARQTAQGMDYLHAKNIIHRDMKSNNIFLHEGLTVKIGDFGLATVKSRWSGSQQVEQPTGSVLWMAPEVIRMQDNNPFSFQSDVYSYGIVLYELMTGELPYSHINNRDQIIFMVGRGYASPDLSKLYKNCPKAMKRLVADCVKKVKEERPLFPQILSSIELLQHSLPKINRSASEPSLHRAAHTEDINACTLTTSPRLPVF
Chain of RAC-beta serine/threonine-protein kinase (Homo sapiens) (P31751 whole entry): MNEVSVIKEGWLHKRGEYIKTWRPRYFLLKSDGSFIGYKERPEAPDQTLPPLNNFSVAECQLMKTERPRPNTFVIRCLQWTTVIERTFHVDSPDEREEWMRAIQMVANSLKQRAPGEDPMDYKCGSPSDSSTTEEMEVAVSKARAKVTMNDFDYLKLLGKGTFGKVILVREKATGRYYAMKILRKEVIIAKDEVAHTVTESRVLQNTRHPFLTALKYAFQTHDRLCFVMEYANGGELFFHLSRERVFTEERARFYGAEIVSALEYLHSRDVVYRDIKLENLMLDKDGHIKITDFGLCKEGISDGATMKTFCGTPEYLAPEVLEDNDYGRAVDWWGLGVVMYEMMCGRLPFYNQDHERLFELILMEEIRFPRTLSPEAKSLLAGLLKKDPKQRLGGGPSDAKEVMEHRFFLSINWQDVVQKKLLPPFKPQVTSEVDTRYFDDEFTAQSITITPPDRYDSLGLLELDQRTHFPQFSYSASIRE
Chain of Ephrin type-A receptor 2 (Homo sapiens) (P29317 whole entry): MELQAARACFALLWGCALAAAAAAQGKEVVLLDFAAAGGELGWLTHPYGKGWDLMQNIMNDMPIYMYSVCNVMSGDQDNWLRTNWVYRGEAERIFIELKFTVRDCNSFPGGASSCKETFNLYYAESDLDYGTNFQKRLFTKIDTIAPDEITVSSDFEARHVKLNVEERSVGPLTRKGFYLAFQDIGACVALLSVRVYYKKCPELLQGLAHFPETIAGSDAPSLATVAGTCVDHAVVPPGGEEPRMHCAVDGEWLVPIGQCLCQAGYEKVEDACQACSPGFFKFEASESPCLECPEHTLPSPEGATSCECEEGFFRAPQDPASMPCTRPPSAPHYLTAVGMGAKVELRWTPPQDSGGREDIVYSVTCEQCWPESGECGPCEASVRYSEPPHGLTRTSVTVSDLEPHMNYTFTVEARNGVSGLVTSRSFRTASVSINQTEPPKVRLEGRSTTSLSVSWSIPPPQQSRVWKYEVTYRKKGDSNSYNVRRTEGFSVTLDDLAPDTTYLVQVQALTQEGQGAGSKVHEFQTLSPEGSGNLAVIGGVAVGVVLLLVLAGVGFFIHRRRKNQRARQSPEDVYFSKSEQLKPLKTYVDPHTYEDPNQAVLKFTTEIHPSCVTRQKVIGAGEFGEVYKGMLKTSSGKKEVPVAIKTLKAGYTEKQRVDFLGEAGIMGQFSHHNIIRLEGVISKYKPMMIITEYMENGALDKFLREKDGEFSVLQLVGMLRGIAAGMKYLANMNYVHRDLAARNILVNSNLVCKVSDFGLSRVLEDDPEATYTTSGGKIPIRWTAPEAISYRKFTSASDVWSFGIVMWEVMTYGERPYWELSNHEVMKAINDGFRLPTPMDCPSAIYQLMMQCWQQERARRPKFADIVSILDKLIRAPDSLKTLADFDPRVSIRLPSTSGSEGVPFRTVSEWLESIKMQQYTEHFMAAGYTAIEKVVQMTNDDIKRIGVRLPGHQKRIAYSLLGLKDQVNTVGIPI
Chain of Tyrosine-protein kinase ABL1 (Homo sapiens) (P00519 whole entry): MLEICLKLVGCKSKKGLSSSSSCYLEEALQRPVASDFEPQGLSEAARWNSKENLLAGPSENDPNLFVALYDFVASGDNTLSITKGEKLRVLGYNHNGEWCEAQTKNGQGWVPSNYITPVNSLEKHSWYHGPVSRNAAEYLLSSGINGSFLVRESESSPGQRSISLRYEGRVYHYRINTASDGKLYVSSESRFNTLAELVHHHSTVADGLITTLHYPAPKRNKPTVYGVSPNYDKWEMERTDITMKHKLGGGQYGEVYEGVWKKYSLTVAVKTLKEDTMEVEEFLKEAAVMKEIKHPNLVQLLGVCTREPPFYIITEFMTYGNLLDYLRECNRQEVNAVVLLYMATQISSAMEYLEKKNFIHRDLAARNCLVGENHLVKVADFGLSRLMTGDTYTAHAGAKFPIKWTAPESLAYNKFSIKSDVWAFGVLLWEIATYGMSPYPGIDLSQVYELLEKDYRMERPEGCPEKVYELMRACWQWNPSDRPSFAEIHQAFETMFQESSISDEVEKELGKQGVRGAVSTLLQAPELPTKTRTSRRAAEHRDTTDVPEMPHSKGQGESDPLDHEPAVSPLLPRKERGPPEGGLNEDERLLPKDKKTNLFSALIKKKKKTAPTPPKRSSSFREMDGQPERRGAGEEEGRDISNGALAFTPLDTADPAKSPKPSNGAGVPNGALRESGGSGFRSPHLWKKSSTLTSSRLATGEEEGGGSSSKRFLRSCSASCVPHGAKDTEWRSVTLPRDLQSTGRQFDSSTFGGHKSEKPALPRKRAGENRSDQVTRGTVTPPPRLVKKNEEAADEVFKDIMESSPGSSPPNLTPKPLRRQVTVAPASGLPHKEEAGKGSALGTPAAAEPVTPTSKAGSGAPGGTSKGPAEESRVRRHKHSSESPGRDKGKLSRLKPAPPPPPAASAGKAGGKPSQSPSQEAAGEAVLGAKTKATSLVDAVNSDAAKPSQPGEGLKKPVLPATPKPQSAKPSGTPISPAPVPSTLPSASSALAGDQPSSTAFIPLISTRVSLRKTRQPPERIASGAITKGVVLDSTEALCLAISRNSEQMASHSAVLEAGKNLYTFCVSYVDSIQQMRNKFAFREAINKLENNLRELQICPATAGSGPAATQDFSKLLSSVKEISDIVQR

Row | inhibition [1] [%] | residual activity [2] [%] | residual activity [3] [%] | residual activity [4] [%] | residual activity [5] [%] | residual activity [6] [%] | residual activity [7] [%] | residual activity [8] [%] | Structure (SMILES)
1 | 14 | 103 | 75 | 101 | 61 | 0 | 7 | 102 | Cc1ccc2cc(-c3n[nH]c4ccc(NC5CCN(Cc6ccccc6)CC5)cc34)[nH]c2c1
2 | 9 | 107 | 74 | 92 | 15 | 0 | 13 | 76 | Cc1ccc2cc(-c3n[nH]c4ccc(NC5CCNC5)cc34)[nH]c2c1 (stereo unspecified)

Reference: ChEMBL document CHEMBL1681705, “Optimisation of ITK inhibitors through successive iterative design cycles” (Bioorg Med Chem Lett, 2011)
